Experimental data: patent publication US20050025847A1, “Microbicidal compositions and method of use” (Program for Appropriate Technology in Health, priority 2003, published 2005)

Assays:
[1] = oral and dermal toxicity, genotoxicity, reproductive/developmental toxicity, sensitization and photosensitization studies; details: oral, dermal, sensitization, photosensitization studies
Text: (§1) A preferred microbicidal agent according to the present invention is bisabolol. In particular, alpha-bisabolol (levomenol) is a preferred microbicidal agent. Bisabolol is a naturally occurring unsaturated monocyclic sesquiterpene alcohol. Alpha-bisabolol is used in a wide range or cosmetic formulations as a skin conditioning agent at concentrations ranging from approximately 0.001% in lipstick to approximately 1% in underarm deodorants. Bisabolol has been used for cosmetic purposes in India and worldwide in skin, oropharyngeal, nasal and vaginal products such as douches up to concentrations of approximately 5%, but has not been used in the prevention or treatment of STIs and/or common vaginal diseases. Bisabolol is the main active principle of chamomile (Matricaria chamomilla) and up to approximately 50% of the essential oil of chamomile consists of alpha-bisabolol.

[2] = tested on: lactobacilli; assay: effect on lactobacilli; type: cell-based
Text: as §1

[3] = tested on: HIV; assay: inhibition of HIV infectivity; type: cell-based
[4] = tested on: Candida albicans; details: isolates of Candida albicans; cited from earlier work
[5] = tested on: Trichophyton mentagrophytes; details: isolates of Trichophyton mentagrophytes; cited from earlier work
[6] = tested on: Epidermophyton floccosum; details: isolates of Epidermophyton floccosum; cited from earlier work
[7] = tested on: Microsporum canis; details: isolates of Microsporum canis; cited from earlier work
[8] = tested on: Trichophyton rubrum; details: isolates of Trichophyton rubrum; cited from earlier work

Row | Compound | toxicity [1] | effect on lactobacilli ([2]; concentration 2 mg/ml) | effect on lactobacilli ([2]; concentration 10 mg/ml) | anti-HIV activity [3] | IC50, inhibition of HIV infectivity ([3]; mixed with the virus and cells) [µg/mL] | IC50, inhibition of HIV infectivity ([3]; mixed with the virus for 5 minutes before washing) [µg/mL] | inactivation of HIV ([3]; washed away after short-term treatment) | fungicidal activity in vitro [4] | fungicidal activity in vitro [5] | fungicidal activity in vitro [6] | fungicidal activity in vitro [7] | fungicidal activity in vitro [8]
1 | CC(C)=CCCC(C)(O)C1CC=C(C)CC1 (stereo not drawn) [Bisabolol, 3-Cyclohexene-1-methanol, alpha,4-dimethyl-alpha-(4-methyl-3-pentenyl)] | little toxicity | no effect | no effect | very high anti-HIV activity | 0.6 | 1 | inactivates HIV | – | – | – | – | –
2 | Cc1cc(C2CCCCC2)n(O)c(=O)c1.NCCO [Ciclopirox Olamine, 6-Cyclohexyl-1-hydroxy-4-methyl-2-(1H)-pyridone ethanolamine salt] | – | – | – | – | – | – | – | exhibits fungicidal activity | exhibits fungicidal activity | exhibits fungicidal activity | exhibits fungicidal activity | exhibits fungicidal activity
